Laboratory results taken from ChEMBL document CHEMBL3046948, “Synthesis and SAR investigation of natural phenylpropene-derived methoxylated cinnamaldehydes and their novel Schiff bases as potent antimicrobial and antioxidant agents” (2013).
Values after ≈ are worked out from the molar mass of the structure shown. Active and inactive are the calls of the source. The rule behind the calls is not given here.

Legend:
Assay type in all cases: functional
[1] = system: Candida albicans; assay: Antimicrobial activity against Candida albicans MTCC 3017 assessed as growth inhibition after 24 hr by broth microdilution method
[2] = system: Aspergillus parasiticus; assay: Antimicrobial activity against Aspergillus parasiticus MTCC 2797 assessed as growth inhibition after 5 days by broth microdilution method
[3] = system: Micrococcus luteus; assay: Antimicrobial activity against Micrococcus luteus MTCC 2470 assessed as growth inhibition after 24 hr by broth microdilution method
[4] = system: Burkholderia cepacia; assay: Antimicrobial activity against Burkholderia cepacia MTCC 438 assessed as growth inhibition after 24 hr by broth microdilution method
[5] = system: Bacillus subtilis; assay: Antimicrobial activity against Bacillus subtilis MTCC 121 assessed as growth inhibition after 24 hr by broth microdilution method
[6] = system: Trichophyton rubrum; assay: Antimicrobial activity against Trichophyton rubrum MTCC 296 assessed as growth inhibition after 5 days by broth microdilution method
[7] = system: Enterobacter cloacae; assay: Antimicrobial activity against Enterobacter cloacae MTCC 509 assessed as growth inhibition after 24 hr by broth microdilution method
[8] = system: Escherichia coli; assay: Antimicrobial activity against Escherichia coli MTCC 43 assessed as growth inhibition after 24 hr by broth microdilution method
[9] = system: Aspergillus niger; assay: Antimicrobial activity against Aspergillus niger MTCC 404 assessed as growth inhibition after 5 days by broth microdilution method
[10] = system: Pichia kudriavzevii; assay: Antimicrobial activity against Pichia kudriavzevii MTCC 231 assessed as growth inhibition after 24 hr by broth microdilution method
[11] = system: Radical scavenging activity; assay: Antioxidant activity assessed as inhibition of DPPH radical formation at 2 mg/ml after 30 min by spectrophotometric analysis
[12] = system: Staphylococcus aureus; assay: Antimicrobial activity against Staphylococcus aureus MTCC 3160 assessed as growth inhibition after 24 hr by broth microdilution method
[13] = system: Klebsiella pneumoniae; assay: Antimicrobial activity against Klebsiella pneumoniae MTCC 109 assessed as growth inhibition after 24 hr by broth microdilution method
[14] = system: Aspergillus sydowii; assay: Antimicrobial activity against Aspergillus sydowii MTCC 4335 assessed as growth inhibition after 5 days by broth microdilution method
[15] = system: Pseudomonas aeruginosa; assay: Antimicrobial activity against Pseudomonas aeruginosa MTCC 424 assessed as growth inhibition after 24 hr by broth microdilution method

MIC ([1]; MTCC 3017, 24 h) | MIC ([2]; MTCC 2797, 120 h) | MIC ([3]; MTCC 2470, 24 h) | MIC ([4]; MTCC 438, 24 h) | MIC ([5]; MTCC 121, 24 h) | MIC ([6]; MTCC 296, 120 h) | MIC ([7]; MTCC 509, 24 h) | MIC ([10]; MTCC 231, 24 h) | MIC ([12]; MTCC 3160, 24 h) | MIC ([14]; MTCC 4335, 120 h) | MIC [7] | MIC [8] | MIC [13] | MIC [15] | MIC [2] | MIC [9] | MIC [14] | MIC [3] | MIC [4] | Compound | inhibition [11] | other results
470 µM (≈ 124 µg/mL) | 1900 µM (≈ 502 µg/mL) | 1900 µM (≈ 502 µg/mL) | 470 µM (≈ 124 µg/mL) | 3780 µM (≈ 999 µg/mL) | 470 µM (≈ 124 µg/mL) | 950 µM (≈ 251 µg/mL) | 470 µM (≈ 124 µg/mL) | 1900 µM (≈ 502 µg/mL) | 1900 µM (≈ 502 µg/mL) |  |  |  |  |  |  |  |  |  | C(=C\c1nc2ccccc2[nH]1)/c1ccc2c(c1)OCO2 | 32.6% | MIC ([8]; MTCC 43, 24 h): 1900 µM (≈ 502 µg/mL); MIC ([9]; MTCC 404, 120 h): 950 µM (≈ 251 µg/mL); MIC ([13]; MTCC 109, 24 h): 1900 µM (≈ 502 µg/mL); MIC ([15]; MTCC 424, 24 h): 10 µM (≈ 2.64 µg/mL)
1700 µM (≈ 499 µg/mL) | 1700 µM (≈ 499 µg/mL) | 850 µM (≈ 249 µg/mL) | 1700 µM (≈ 499 µg/mL) | 850 µM (≈ 249 µg/mL) | 1700 µM (≈ 499 µg/mL) |  | 1700 µM (≈ 499 µg/mL) | 850 µM (≈ 249 µg/mL) | 850 µM (≈ 249 µg/mL) | inactive | inactive | inactive | inactive |  |  |  |  |  | CC(=O)c1ccc(/N=C/C=C/c2ccc3c(c2)OCO3)cc1 | 4.49% | MIC ([9]; MTCC 404, 120 h): 1700 µM (≈ 499 µg/mL)
770 µM (≈ 248 µg/mL) |  | 770 µM (≈ 248 µg/mL) | 770 µM (≈ 248 µg/mL) | 770 µM (≈ 248 µg/mL) | 770 µM (≈ 248 µg/mL) | 770 µM (≈ 248 µg/mL) | 770 µM (≈ 248 µg/mL) | 380 µM (≈ 123 µg/mL) |  |  | inactive | inactive | inactive | inactive | inactive | inactive |  |  | Cc1ccc2nc(/N=C/C=C/c3ccc4c(c3)OCO4)sc2c1 | 3.19% | 
1420 µM (≈ 500 µg/mL) | 710 µM (≈ 250 µg/mL) | 710 µM (≈ 250 µg/mL) | 1420 µM (≈ 500 µg/mL) | 1420 µM (≈ 500 µg/mL) | 1420 µM (≈ 500 µg/mL) |  | 1420 µM (≈ 500 µg/mL) | 710 µM (≈ 250 µg/mL) | 710 µM (≈ 250 µg/mL) | inactive | inactive | inactive | inactive |  | inactive |  |  |  | CCOc1ccc2nc(/N=C/C=C/c3ccc4c(c3)OCO4)sc2c1 | 0.24% | 
730 µM (≈ 250 µg/mL) |  | 730 µM (≈ 250 µg/mL) | 730 µM (≈ 250 µg/mL) | 730 µM (≈ 250 µg/mL) | 730 µM (≈ 250 µg/mL) |  | 730 µM (≈ 250 µg/mL) | 730 µM (≈ 250 µg/mL) |  | inactive | inactive | inactive | inactive | inactive | inactive | inactive |  |  | Clc1ccc2nc(/N=C/C=C/c3ccc4c(c3)OCO4)sc2c1 | 80.7% | 
 | 1600 µM (≈ 498 µg/mL) |  |  |  |  |  |  |  | 3210 µM (≈ 999 µg/mL) | inactive | inactive | inactive | inactive |  | inactive |  | inactive | inactive | COc1ccc(/N=C/C=C/c2ccc3c(c2)OCO3)cc1OC | 15.4% | MIC [1]: inactive; MIC [5]: inactive; MIC [6]: inactive; MIC [10]: inactive; MIC [12]: inactive
810 µM (≈ 250 µg/mL) |  | 200 µM (≈ 61.7 µg/mL) | 810 µM (≈ 250 µg/mL) | 400 µM (≈ 123 µg/mL) | 810 µM (≈ 250 µg/mL) | 810 µM (≈ 250 µg/mL) | 1620 µM (≈ 500 µg/mL) | 200 µM (≈ 61.7 µg/mL) |  |  |  |  |  | inactive | inactive | inactive |  |  | C(=C\c1ccc2c(c1)OCO2)/C=N/c1nc2ccccc2s1 | 3.55% | MIC ([8]; MTCC 43, 24 h): 810 µM (≈ 250 µg/mL); MIC ([13]; MTCC 109, 24 h): 810 µM (≈ 250 µg/mL); MIC ([15]; MTCC 424, 24 h): 810 µM (≈ 250 µg/mL)
8570 µM (≈ 2000 µg/mL) |  |  |  |  | 8570 µM (≈ 2000 µg/mL) |  | 8570 µM (≈ 2000 µg/mL) |  |  | inactive | inactive | inactive | inactive | inactive | inactive | inactive | inactive | inactive | NC(=O)N/N=C/C=C/c1ccc2c(c1)OCO2 | 2.37% | MIC [5]: inactive; MIC [12]: inactive
970 µM (≈ 251 µg/mL) | 3870 µM (≈ 1000 µg/mL) | 970 µM (≈ 251 µg/mL) | 1930 µM (≈ 499 µg/mL) | 120 µM (≈ 31 µg/mL) | 970 µM (≈ 251 µg/mL) | 480 µM (≈ 124 µg/mL) | 970 µM (≈ 251 µg/mL) | 480 µM (≈ 124 µg/mL) | 1930 µM (≈ 499 µg/mL) |  |  |  | inactive |  |  |  |  |  | C(=C\c1ccc2c(c1)OCO2)/C=N/c1nccs1 | 3.91% | MIC ([8]; MTCC 43, 24 h): 970 µM (≈ 251 µg/mL); MIC ([9]; MTCC 404, 120 h): 3870 µM (≈ 1000 µg/mL); MIC ([13]; MTCC 109, 24 h): 970 µM (≈ 251 µg/mL)
 |  |  |  |  |  |  |  |  |  |  |  |  |  |  |  |  |  |  | Cc1cc(C(C)(C)C)c(O)c(C(C)(C)C)c1 | 91.6% | 
 |  |  |  |  |  |  |  |  |  | inactive | inactive | inactive | inactive | inactive | inactive | inactive | inactive | inactive | NC(=S)N/N=C/C=C/c1ccc2c(c1)OCO2 | 10.7% | MIC [1]: inactive; MIC [5]: inactive; MIC [6]: inactive; MIC [10]: inactive; MIC [12]: inactive
990 µM (≈ 249 µg/mL) | 1990 µM (≈ 500 µg/mL) | 990 µM (≈ 249 µg/mL) | 490 µM (≈ 123 µg/mL) | 1990 µM (≈ 500 µg/mL) | 990 µM (≈ 249 µg/mL) | 990 µM (≈ 249 µg/mL) | 490 µM (≈ 123 µg/mL) | 1990 µM (≈ 500 µg/mL) | 1990 µM (≈ 500 µg/mL) |  |  |  |  |  |  |  |  |  | C(=C\c1ccc2c(c1)OCO2)/C=N/c1ccccc1 | 25.8% | MIC ([8]; MTCC 43, 24 h): 1990 µM (≈ 500 µg/mL); MIC ([9]; MTCC 404, 120 h): 990 µM (≈ 249 µg/mL); MIC ([13]; MTCC 109, 24 h): 990 µM (≈ 249 µg/mL); MIC ([15]; MTCC 424, 24 h): 250 µM (≈ 62.8 µg/mL)
 |  |  |  |  |  |  |  |  |  | inactive | inactive | inactive | inactive | inactive | inactive | inactive | inactive | inactive | CC(C)OC(=O)/C=C/c1ccccc1 |  | MIC [1]: inactive; MIC [5]: inactive; MIC [6]: inactive; MIC [10]: inactive; MIC [12]: inactive

Compound | MIC ([1]; MTCC 3017, 24 h) | MIC ([2]; MTCC 2797, 120 h) | MIC ([3]; MTCC 2470, 24 h) | MIC ([4]; MTCC 438, 24 h) | MIC ([5]; MTCC 121, 24 h) | MIC ([6]; MTCC 296, 120 h) | MIC ([7]; MTCC 509, 24 h) | MIC ([10]; MTCC 231, 24 h) | MIC ([12]; MTCC 3160, 24 h) | MIC ([14]; MTCC 4335, 120 h) | MIC [7] | MIC [8] | MIC [13] | MIC [15] | MIC [2] | MIC [9] | MIC [14] | MIC [3] | MIC [4] | inhibition [11] | other results
C/C=C/c1ccc(OC)cc1 [ANETHOLE] | 6740 µM (≈ 999 µg/mL) |  |  |  |  |  |  | 6740 µM (≈ 999 µg/mL) |  |  | inactive | inactive | inactive | inactive | inactive | inactive | inactive | inactive | inactive |  | MIC [5]: inactive; MIC [6]: inactive; MIC [12]: inactive
